Experimental data published in patent EP4741391A1, “NMT INHIBITOR, AND PREPARATION METHOD THEREFOR AND USE THEREOF” (Nanjing Synnocare Pharmaceutical Technology Co., Ltd., priority 2023, dated 2025).

Experiments:
MV-4-11 cells = test: Anti-proliferative activity against MV-4-11 cells (three-day cell viability chemiluminescence); type: cell-based; conditions: MV-4-11 human monocytic leukemia cells, three days of exposure
Protocol: This study utilized a cell proliferation assay to analyze the cytotoxicity of MV-4-11 human monocytic leukemia cells after three days of exposure to NMT1 inhibitors. The MV-4-11 cell line was purchased from Nanjing Cobuilder Biotechnology Co., Ltd., and cultured in IMDM medium (Viva cell) in an incubator (Thermo) at 37 °C with 5% CO2. In this experiment, NMT1 inhibitors were dissolved in DMSO to obtain 600 µM stock solutions. Dose-response solutions were prepared with a top endpoint compound concentration of 3 µM, followed by three-fold serial dilutions in DMSO, totaling eight data points. The final concentration of DMSO was 0.5%.
MV-4-11 cells were seeded into a white 96-well plate, 80 µL of cell suspension per well, containing 6000 MV-4-11 cells. The cell plate was placed in the CO2 incubator for overnight culture. Then, 20 µL of NMT1 inhibitor solutions at different concentrations were added to the wells. The 96-well plate was placed back into the incubator for three days. Another cell plate was prepared, and the signal was read on the day of drug addition to serve as the maximum value (Max value in the equation below) for data analysis. To this cell plate, 25 µL of cell viability chemiluminescence detection reagent was added per well, followed by incubation at room temperature for 10 minutes to stabilize the luminescence signal. A multi-label analyzer was used for reading.
The raw data were converted into inhibition rates using the equation (Sample - Min) / (Max - Min) * 100%. The IC50 values were then determined by fitting a four-parameter curve (using the "log(inhibitor) vs. response - Variable slope" model in GraphPad Prism). Min: wells treated with 0.5% DMSO; Max: Day 0 wells. Table 1 provides the inhibitory activity of the compounds of the invention on MV-4-11 cell proliferation. Table 1: Compound Inhibitory Activity against NMT1 Enzyme (IC50) and Anti-proliferative Activity against MV-4-11 Cells (IC50)

NMT1 enzyme = biological target: T1, NMT1 enzyme (Homo sapiens, UniProt P30419); test: Inhibitory activity on NMT1 enzyme catalysis (fluorescence intensity, CPM probe); type: biochemical; conditions: 6 nM NMT1 enzyme, 1.25 µM myristoyl-CoA, 20 µM HSPP60 SRC peptide, 45 minutes at 25 °C
T1 sequence (P30419 1-496): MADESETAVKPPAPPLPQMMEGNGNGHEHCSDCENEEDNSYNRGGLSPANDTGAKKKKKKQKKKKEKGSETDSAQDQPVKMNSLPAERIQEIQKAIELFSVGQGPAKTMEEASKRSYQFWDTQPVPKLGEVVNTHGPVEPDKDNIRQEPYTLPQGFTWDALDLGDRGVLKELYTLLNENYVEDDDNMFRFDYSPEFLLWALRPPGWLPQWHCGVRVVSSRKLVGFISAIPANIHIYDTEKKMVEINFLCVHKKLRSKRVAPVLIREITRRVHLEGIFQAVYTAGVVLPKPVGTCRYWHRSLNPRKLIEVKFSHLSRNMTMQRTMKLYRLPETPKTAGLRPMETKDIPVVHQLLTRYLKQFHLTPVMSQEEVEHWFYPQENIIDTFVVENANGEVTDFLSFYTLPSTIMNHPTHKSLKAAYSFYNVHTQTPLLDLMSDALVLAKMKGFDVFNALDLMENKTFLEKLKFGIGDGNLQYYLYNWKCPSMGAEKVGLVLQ
Protocol: This study evaluated the ability of the compounds of the invention to inhibit NMT1 catalytic activity in vitro. The experiment used a FI (Fluorescence Intensity) analysis method, characterizing NMT1 inhibitors under conditions of 1.25 µM myristoyl-CoA (Lithium salt, Sigma, M4414). In this experiment, a synthesized peptide with the sequence H-Gly-Ser-Asn-Lys-Ser-Lys-Pro-Lys-NH2, HSPP60SRC (Nanjing Peptide Industry, NJP23953), was used as the reaction substrate. The final concentration of the NMT1 enzyme was 6 nM, the final concentration of CPM (Reactive thiol fluorescence probe, Invitrogen, D346) was 1 µM, the final concentration of HSPP60 SRC was 20 µM, and the final concentration of DMSO was 0.5%.
Compounds were dissolved in DMSO to obtain 10 mM stock solutions. Dose-response solutions were prepared with a top endpoint compound concentration of 3 mM, followed by three-fold serial dilutions in DMSO, totaling ten data points. Using an ECHO acoustic liquid handler (BECKMAN, ECHO 655 system), 0.05 µL of the diluted compound solutions was transferred to a 384-well assay plate (Corning, CLS4514). Then, 2.5 µL of the NMT1 enzyme working solution was added to the 384-well assay plate, followed by incubation at 25 °C for 10 minutes. Subsequently, 5 µL of the CPM and myristoyl-CoA working solution was added, the plate was centrifuged at 1000 rpm for 1 minute, and then 2.5 µL of the HSPP60 SRC working solution was added to initiate the reaction. The reaction was incubated at 25 °C for 45 minutes. The FI signal ([…]; ex: 405 nm) was detected using an HTS high-throughput screening multifunctional microplate reader (BMG, PHERA star FSX).
The inhibition rate of the compounds on NMT1 enzyme catalytic activity was calculated using the following formula: Inhibition Percentage (%) = 100 * (Mean of DMSO group - Mean of Compound group) / (Mean of DMSO group - Mean of Blank control group). The IC50 curve of the compounds was fitted using the software XLfit 5.5.0 according to the nonlinear regression equation. Table 1 provides the inhibitory activity of the compounds of the invention on NMT1 enzyme catalysis.

SMILES | IC50 (MV-4-11 cells; Homo sapiens, MV4-11, 72 h) [nM] | IC50 (NMT1 enzyme) [nM] | IC50 (MV-4-11 cells) [nM]
CCc1nn(C)c(C)c1CCOc1c(-c2ccn3ncc(CNC)c3c2)ccc(F)c1F [Compound 24, 5-(2-{[2-(3-ethyl-1,5-dimethylpyrazol-4-yl)ethyl]oxy}-3,4-difluorophenyl)-3-[(methylamino)methyl]pyrazolo[1,5-a]pyridine] | 24.9 | 2.81 | 
CNCc1cnn2ccc(-c3ccc(F)c(F)c3OCCc3c(C(C)C)nn(C)c3C)cc12 [Compound 25, 5-[2-({2-[1,5-dimethyl-3-(prop-2-yl)pyrazol-4-yl]ethyl}oxy)-3,4-difluorophenyl]-3-[(methylamino)methyl]pyrazo lo[1,5-a]pyridine] | 25.8 | 3.26 | 
CNCc1cnn2ccc(-c3ccc(F)c(F)c3OCCc3c(CF)nn(C)c3C)cc12 [Compound 26, 5-[3,4-difluoro-2-({2-[3-(fluoromethyl)-1,5-dimethylpyrazol-4-yl]ethyl}oxy)phenyl]-3-[(methylamino)methyl]p yrazolo[1,5-a]pyridine] | 12.3 | 2.48 | 
CNCc1cnn2ccc(-c3ccc(F)c(F)c3OCCc3c(C#N)nn(C)c3C)cc12 [Compound 27, 4-{2-[(2,3-difluoro-6-{3-[(methylamino)methyl]pyrazolo[1,5-a]pyridin-5-yl}phenyl)oxy]ethyl}-1,5-dimethylpyr azole-3-carbonitrile] | < 10 | 1.82 | 5.56
CNCc1cnn2ccc(-c3ccc(F)c(F)c3OCCc3c(CC#N)nn(C)c3C)cc12 [Compound 28, (4-{2-[(2,3-difluoro-6-{3-[(methylam ino)methyl]pyrazolo[1,5-a]pyridin-5-yl}phenyl)oxy]ethyl}-1,5-dimethylpyrazol-3-yl)acetonitrile] | 10.7 | 1.95 | 
CNCc1cnn2ccc(-c3ccc(F)cc3OCCc3c(C(C)(C)O)nn(C)c3C)cc12 [Compound 33, 2-(4-{2-[(5-fluoro-2-{3-[(methylamino)methyl]pyrazolo[1,5-a]pyridin-5-yl}phenyl)oxy]ethyl}-1,5-dimethylpyrazol-3-yl)propan-2-ol] | 5.49 | 2.13 | 
CNCc1cnn2ccc(-c3ccc(F)cc3OCCc3c(C(C)O)nn(C)c3C)cc12 (stereo not drawn) [Compound 35, 1-(4-{2-[(5-fluoro-2-{3-[(methylamino)methyl]pyrazolo[1,5-a]pyridin-5-yl}phenyl)oxy]ethyl}-1,5-dimethylpyrazol-3-yl)ethan-1-ol] | 5.04 | 2.05 | 
